Experiments:
[1] = biological target: JAK3 (Homo sapiens (Human), UniProt P52333); test: JAK3 Ki determination assay; format: biochemical; conditions: Lineweaver-Burk; polyGT substrate, 33P readout
Text: For the determination of Ki, different amounts of inhibitor were mixed with the enzyme and the enzymatic reaction was followed as a function of ATP concentration.

[2] = system: HeLa cells, STAT signalling; test: JAK-STAT signalling assay (pSTAT1(2)-luciferase reporter, OSM trigger); format: cell-based; conditions: human OSM 33 ng/mL
Description: HeLa cells were maintained in Dulbecco's Modified Eagle's Medium (DMEM) containing 10% heat inactivated fetal calf serum, 100 U/mL penicillin and 100 μg/mL streptomycin. HeLa cells were used at 70% confluence for transfection. 20,000 cells in 87 μL cell culture medium were transiently transfected with 40 ng pSTAT1(2)-luciferase reporter (Panomics), 8 ng of LacZ reporter as internal control reporter and 52 ng of pBSK using 0.32 μL Jet-PEI (Polyplus) as transfection reagent per well in 96-well plate format. After overnight incubation at 37° C., 10% CO2, transfection medium was removed. 75 μL of DMEM+1.5% inactivated fetal calf serum was added. 15 μL of compound at 6.7× concentration was added for 60 min and then 10 μL of human OSM (Peprotech) at 33 ng/mL final concentration. […]
40 μL of cell lysate was used to read β-galactosidase activity by adding 180 μL βGal solution (30 μl ONPG 4 mg/mL+150 μL β-Galactosidase buffer (0.06 M Na2HPO4, 0.04 M NaH2PO4, 1 mM MgCl2)) for 20 min. The reaction was stopped by addition of 50 μL Na2CO3 1 M. Absorbance was read at 405 nm
Luciferase activity was measured using 40 μL cell lysate plus 40 μl of Steadylite® as described by the manufacturer (Perkin Elmer), on the Envision (Perkin Elmer). […]

[3] = biological target: JAK1 (Homo sapiens (Human), UniProt P23458); test: JAK1 Ki determination assay (Ulight-JAK-1 peptide); format: biochemical; conditions: Lineweaver-Burk; Ulight-JAK-1 (Tyr1023) peptide, alternative protocol
Sequence of JAK1 (P23458 866-1154): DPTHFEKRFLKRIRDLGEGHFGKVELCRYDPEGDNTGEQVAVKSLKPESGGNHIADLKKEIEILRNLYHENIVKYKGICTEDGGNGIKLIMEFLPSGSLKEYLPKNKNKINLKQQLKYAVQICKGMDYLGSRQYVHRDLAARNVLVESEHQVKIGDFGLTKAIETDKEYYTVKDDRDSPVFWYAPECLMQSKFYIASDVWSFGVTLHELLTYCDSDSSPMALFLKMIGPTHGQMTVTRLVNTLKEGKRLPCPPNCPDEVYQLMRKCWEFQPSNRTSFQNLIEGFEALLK
Description: Alternatively, for the determination of Ki, different amounts of inhibitor were mixed with the enzyme and the enzymatic reaction was followed as a function of ATP concentration. The Ki was determined by means of double reciprocal plotting of Km vs compound concentration (Lineweaver-Burk plot). 1 ng of JAK1 (Invitrogen, PV4774) was used in the assay. The substrate was 50 nM Ulight-JAK-1 ([MUT]) Peptide (Perkin Elmer, TRF0121) The reaction was performed in 25 mM MOPS pH 6.8, 0.01%, 2 mM DTT, 5 mM MgCl2 Brij-35 with varying concentrations of ATP and compound. Phosphorylated substrate was measured using an Eu-labeled anti-phosphotyrosine antibody PT66 (Perkin Elmer, AD0068). Readout was performed on the envision (Perkin Elmer) with excitation at 320 nm and emission followed at 615 nm and 665 nm.

[4] = system: JAK2-dependent pathway (GM-CSF stimulated STAT5 phosphorylation, CD14+ cells) in human whole blood; test: Whole blood assay, GM-CSF stimulation, Phospho-STAT5 FACS; format: cell-based; conditions: mean of 3 healthy volunteers, read-out: pIC50 in the inhibition of STAT5 phosphorylation (converted)
Description: (§1) A flow cytometry analysis was also performed to establish compound selectivity for JAK1 over JAK2, ex vivo using human whole blood.
The increase in phosphorylation of STAT5 by GM-CSF in monocytes was measured using an anti phospho-STAT5 antibody by FACS.
(§2) Remaining diluted Lyse/Fix buffer was discarded.
10 μg rhGM-CSF (AbCys S.A., Cat N°P300-03) was dissolved in 100 μl of PBS 0.1% BSA to obtain a 100 μg/ml stock solution. The stock solution was stored aliquoted at −80° C.
Control-treated samples received DMSO without any test compound.
(§3) Human blood was collected in heparinized tubes.
50,000 total events were counted and Phospho-STAT5 positive cells were measured after gating on CD14+ cells.

[5] = Caco2 permeability (bi-directional); format: in vitro ADME; conditions: human, pH 7.4
Description: Bi-directional Caco-2 assays were performed as described below. Caco-2 cells were obtained from European Collection of Cell Cultures (ECACC, cat 86010202) and used after a 21 day cell culture in 24-well Transwell plates (Fisher TKT-545-020B).
2×10^5 cells/well were seeded in plating medium consisting of DMEM+GlutaMAXI+1% NEAA+10% FBS (FetalClone II)+1% Pen/Strep. The medium was changed every 2-3 days.
Test and reference compounds (propranolol and rhodamine123 or vinblastine, all purchased from Sigma) were prepared in Hanks' Balanced Salt Solution containing 25 mM HEPES (pH7.4) and added to either the apical (125 μL) or basolateral (600 μL) chambers of the Transwell plate assembly at a concentration of 10 μM with a final DMSO concentration of 0.25%.
50μM Lucifer Yellow (Sigma) was added to the donor buffer in all wells to assess integrity of the cell layers by monitoring Lucifer Yellow permeation. […]
Lucifer yellow was measured with a Spectramax Gemini XS (Ex 426 nm and Em 538 nm) in a clean 96 well plate containing 150 μL of liquid from basolateral and apical side.
Concentrations of compound in the samples were measured by high performance liquid-chromatography/mass spectroscopy (LC-MS/MS).
The Efflux ratios, as an indication of active efflux from the apical cell surface, were calculated using the ratio of PappB>A/Papp A>B.

[6] = system: JAK1-dependent pathway (IL-6 stimulated STAT1 phosphorylation, CD4+ cells) in human whole blood; test: Whole blood assay, IL-6 stimulation, Phospho-STAT1 FACS; format: cell-based
Description: as §1, §2
The stock solution was stored aliquoted at −80° C.
Control-treated samples received DMSO instead of compound.
as §3

Sequence of JAK3 (P52333 whole entry): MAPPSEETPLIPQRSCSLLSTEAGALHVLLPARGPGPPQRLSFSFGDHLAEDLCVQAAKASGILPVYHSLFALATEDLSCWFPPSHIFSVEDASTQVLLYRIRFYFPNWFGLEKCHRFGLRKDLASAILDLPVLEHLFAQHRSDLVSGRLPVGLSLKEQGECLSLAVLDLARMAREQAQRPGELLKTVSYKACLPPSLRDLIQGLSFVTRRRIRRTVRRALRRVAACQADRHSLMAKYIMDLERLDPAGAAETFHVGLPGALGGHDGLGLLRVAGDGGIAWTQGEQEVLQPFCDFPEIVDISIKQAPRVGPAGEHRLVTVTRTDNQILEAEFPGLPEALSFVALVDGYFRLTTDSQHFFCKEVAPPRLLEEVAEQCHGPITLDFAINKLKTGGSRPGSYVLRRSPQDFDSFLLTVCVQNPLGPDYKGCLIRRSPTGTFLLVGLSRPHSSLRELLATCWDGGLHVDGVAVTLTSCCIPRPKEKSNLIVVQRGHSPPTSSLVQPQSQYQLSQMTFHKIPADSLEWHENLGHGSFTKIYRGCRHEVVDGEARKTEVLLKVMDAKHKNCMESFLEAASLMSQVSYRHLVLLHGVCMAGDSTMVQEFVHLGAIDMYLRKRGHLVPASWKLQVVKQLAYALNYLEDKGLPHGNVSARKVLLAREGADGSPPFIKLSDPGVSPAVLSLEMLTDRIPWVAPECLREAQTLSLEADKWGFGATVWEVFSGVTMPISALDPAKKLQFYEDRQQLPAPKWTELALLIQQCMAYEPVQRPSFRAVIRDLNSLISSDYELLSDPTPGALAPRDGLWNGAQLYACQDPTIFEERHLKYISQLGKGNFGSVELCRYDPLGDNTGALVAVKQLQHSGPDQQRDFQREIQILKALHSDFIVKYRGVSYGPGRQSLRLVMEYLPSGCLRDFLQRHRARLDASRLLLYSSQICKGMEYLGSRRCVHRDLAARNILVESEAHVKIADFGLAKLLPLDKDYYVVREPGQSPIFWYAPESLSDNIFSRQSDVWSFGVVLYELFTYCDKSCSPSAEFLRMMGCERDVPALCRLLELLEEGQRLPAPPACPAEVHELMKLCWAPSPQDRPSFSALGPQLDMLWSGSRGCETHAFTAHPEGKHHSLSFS

## CC1(C)CN(C(=O)c2ccc(-c3cccc4nc(NC(=O)C5CC5)nn34)cc2)C1 [Compound 1, Cyclopropanecarboxylic acid{5-[4-(3,3-dimethyl-azetidine-1-carbonyl)-phenyl]-[1,2,4]triazolo[1,5-a]pyridin-2-yl}-amide]
[1]
  Ki: 0.188 µM
[2]
  EC50: 0.539 ± 0.13 µM
[3]
  Ki: 0.0056 µM
[4]
  IC50: 4.27 µM
[5]; Caco-2, 10 μM, 1 hour, pH7.4
  Papp at 1 h, 10 μM: 78 ± 8 nm/s
[5]; Caco-2, Papp B>A / Papp A>B
  efflux ratio at 1 h, 10 μM: 6.1 ± 0.6
[6]; Homo sapiens, IL-6 stimulation, FACS, CD4+ cells, mean of 3 healthy volunteers, read-out: pIC50 in the inhibition of STAT1 phosphorylation (converted)
  IC50: 0.245 µM
[6]; IL-6 pSTAT1 vs GM-CSF pSTAT5, human whole blood FACS
  selectivity for JAK1 vs. JAK2 (STAT1 vs STAT5): 17.6 fold

Reference: US8796457B2, “Compound useful for the treatment of degenerative and inflammatory diseases” (Galapagos NV, priority 2009, dated 2014)
